Source: patent US11497212B2, “Substituted thiophenyl uracils, salts thereof and the use thereof as herbicidal agents” (Syngenta Crop Protection AG, priority 2017, dated 2022)

Experiments:
Type in all cases: in vivo
Matricaria inodora [1] = assay: Herbicidal action post-emergence (greenhouse pot trial); settings: scored visually after about 3 weeks vs untreated controls
How it was run: (§1)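 Weed seeds sown in sandy loam were grown in a greenhouse for 2–3 weeks and treated at the one-leaf stage. WP or EC formulations, with 0.5% additive, were sprayed on green parts at a water rate of 600 L/ha and at 80 g/ha or lower. Efficacy was scored visually about 3 weeks later against untreated controls.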

Amaranthus retroflexus [2] = assay: as above; settings: application rate 20 g/ha, scored visually after about 3 weeks vs untreated controls
How it was run: as §1

Polygonum convolvulus = assay: as above; settings: scored visually after about 3 weeks vs untreated controls
How it was run: as §1

Viola tricolor [3] = assay: as above
How it was run: as §1

Abutilon theophrasti [4] = assay: as above; settings: scored visually after about 3 weeks vs untreated controls
How it was run: as §1

Veronica persica [5] = assay: as above; settings: application rate 20 g/ha
How it was run: as §1

Pharbitis purpurea [6] = assay: as above
How it was run: as §1

Zea mays [7] = assay: Crop compatibility pre-emergence (greenhouse pot trial); settings: application rate 80 g/ha, effect vs untreated controls
Description: (§2) Seeds of mono- and dicotyledonous weeds and crop plants were laid out in plastic or organic plant pots and covered with soil. The compounds of the invention formulated in the form of wettable powders (WP) or emulsion concentrates (EC) were then applied to the surface of the covering soil as an aqueous suspension or emulsion with addition of 0.5% additive at a water application rate equivalent to 600 L/ha. After the treatment, the pots were placed in a greenhouse and kept under good growth conditions for the test plants. After about 3 weeks, the efficacy of the preparations was scored visually as a percentage by comparison with untreated controls. For example, 100% efficacy=plants have died, 0% efficacy=like control plants.
(§3) Crop compatibilities were also scored correspondingly.
(§4) The effects observed are reported here on selected crop plants by comparison with the untreated controls (values in %).

Matricaria inodora [8] = assay: Herbicidal action pre-emergence (greenhouse pot trial); settings: scored after about 3 weeks
Description: as §2, with “control plants. Tables B1 to B16 below show the efficacies of selected compounds of the general formula (I) according to tables I.1 to I.60 on various harmful plants and an application rate corresponding to 320 g/ha or lower that were obtained by the aforementioned trial method.” for “control plants.”

Amaranthus retroflexus [9] = assay: as above; settings: scored after about 3 weeks
Description: as §2, with “control plants. Tables B1 to B16 below show the efficacies of selected compounds of the general formula (I) according to tables I.1 to I.60 on various harmful plants and an application rate corresponding to 320 g/ha or lower that were obtained by the aforementioned trial method.” for “control plants.”

Viola tricolor [10] = assay: as above; settings: scored after about 3 weeks
Description: as §2, with “control plants. Tables B1 to B16 below show the efficacies of selected compounds of the general formula (I) according to tables I.1 to I.60 on various harmful plants and an application rate corresponding to 320 g/ha or lower that were obtained by the aforementioned trial method.” for “control plants.”

Abutilon theophrasti [11] = assay: as above; settings: scored after about 3 weeks
Description: as §2, with “control plants. Tables B1 to B16 below show the efficacies of selected compounds of the general formula (I) according to tables I.1 to I.60 on various harmful plants and an application rate corresponding to 320 g/ha or lower that were obtained by the aforementioned trial method.” for “control plants.”

Oryza sativa = assay: Crop compatibility post-emergence (greenhouse pot trial); settings: application rate 20 g/ha
How it was run: (§5)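 Visual % damage vs untreated controls, ~3 wk post-spray (100% = plants died, 0% = as control). Plants in sandy loam, greenhouse, sprayed at one-leaf stage (2–3 wk after sowing); WP/EC in water + 0.5% additive, 600 L/ha.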

Zea mays [12] = assay: as above
How it was run: as §5

Glycine max [13] = assay: as above
How it was run: as §5

Triticum aestivum = assay: as above
How it was run: as §5

Setaria viridis [14] = assay: Herbicidal action post-emergence (greenhouse pot trial); settings: scored visually after about 3 weeks vs untreated controls
How it was run: as §1

Alopecurus myosuroides [15] = assay: as above; settings: application rate 20 g/ha, scored visually after about 3 weeks vs untreated controls
How it was run: as §1

Stellaria media [16] = assay: as above; settings: application rate 20 g/ha, scored visually after about 3 weeks vs untreated controls
How it was run: as §1

Echinochloa crus-galli [17] = assay: as above; settings: application rate 20 g/ha, scored visually after about 3 weeks vs untreated controls
How it was run: as §1

Glycine max [18] = assay: Crop compatibility pre-emergence (greenhouse pot trial); settings: application rate 80 g/ha, effect vs untreated controls
Description: as §2, §3, §4

Avena fatua = assay: Herbicidal action pre-emergence (greenhouse pot trial); settings: application rate 320 g/ha
Description: as §2, with “control plants. Tables B1 to B16 below show the efficacies of selected compounds of the general formula (I) according to tables I.1 to I.60 on various harmful plants and an application rate corresponding to 320 g/ha or lower that were obtained by the aforementioned trial method.” for “control plants.”

Lolium rigidum = assay: as above; settings: application rate 320 g/ha
Description: as §2, with “control plants. Tables B1 to B16 below show the efficacies of selected compounds of the general formula (I) according to tables I.1 to I.60 on various harmful plants and an application rate corresponding to 320 g/ha or lower that were obtained by the aforementioned trial method.” for “control plants.”

Setaria viridis [19] = assay: as above; settings: application rate 320 g/ha, scored after about 3 weeks
Description: as §2, with “control plants. Tables B1 to B16 below show the efficacies of selected compounds of the general formula (I) according to tables I.1 to I.60 on various harmful plants and an application rate corresponding to 320 g/ha or lower that were obtained by the aforementioned trial method.” for “control plants.”

Alopecurus myosuroides [20] = assay: as above; settings: application rate 320 g/ha, scored after about 3 weeks
Description: as §2, with “control plants. Tables B1 to B16 below show the efficacies of selected compounds of the general formula (I) according to tables I.1 to I.60 on various harmful plants and an application rate corresponding to 320 g/ha or lower that were obtained by the aforementioned trial method.” for “control plants.”

Stellaria media [21] = assay: as above; settings: application rate 320 g/ha, scored after about 3 weeks
Description: as §2, with “control plants. Tables B1 to B16 below show the efficacies of selected compounds of the general formula (I) according to tables I.1 to I.60 on various harmful plants and an application rate corresponding to 320 g/ha or lower that were obtained by the aforementioned trial method.” for “control plants.”

Veronica persica [22] = assay: as above; settings: application rate 320 g/ha
Description: as §2, with “control plants. Tables B1 to B16 below show the efficacies of selected compounds of the general formula (I) according to tables I.1 to I.60 on various harmful plants and an application rate corresponding to 320 g/ha or lower that were obtained by the aforementioned trial method.” for “control plants.”

Echinochloa crus-galli [23] = assay: as above; settings: application rate 320 g/ha, scored after about 3 weeks
Description: as §2, with “control plants. Tables B1 to B16 below show the efficacies of selected compounds of the general formula (I) according to tables I.1 to I.60 on various harmful plants and an application rate corresponding to 320 g/ha or lower that were obtained by the aforementioned trial method.” for “control plants.”

Pharbitis purpurea [24] = assay: as above; settings: application rate 320 g/ha
Description: as §2, with “control plants. Tables B1 to B16 below show the efficacies of selected compounds of the general formula (I) according to tables I.1 to I.60 on various harmful plants and an application rate corresponding to 320 g/ha or lower that were obtained by the aforementioned trial method.” for “control plants.”

In the case of `CC(Sc1cc(-n2c(=O)cc(C(F)(F)F)n(C)c2=O)c(F)cc1Cl)C(=O)NCC1CCOC1(C)C` (stereo not shown) [I.1-227], the “Matricaria inodora (Efficacy in %)” value (Matricaria inodora [1]; application rate 20 g/ha) is reported as 100%, the “Amaranthus retroflexus (Efficacy in %)” value (Amaranthus retroflexus [2]) is reported as 100% and the “Polygonum convolvulus (Efficacy in %)” value (Polygonum convolvulus; application rate 20 g/ha) is reported as 100%. For the same molecule, the “Viola tricolor (Efficacy in %)” value (Viola tricolor [3]; application rate 20 g/ha) was 80%, the “Abutilon theophrasti (Efficacy in %)” value (Abutilon theophrasti [4]; application rate 20 g/ha) was 100% and the “Veronica persica (Efficacy in %)” value (Veronica persica [5]) was 100%. The “Pharbitis purpurea (Efficacy in %)” value (Pharbitis purpurea [6]; application rate 20 g/ha) was 100%, the “Zea mays (Efficacy in %)” value (Zea mays [7]) was 0% and the “Matricaria inodora (Efficacy in %)” value (Matricaria inodora [8]; application rate 80 g/ha) was 90%. The “Amaranthus retroflexus (Efficacy in %)” value (Amaranthus retroflexus [9]; application rate 80 g/ha) was 100%, the “Viola tricolor (Efficacy in %)” value (Viola tricolor [10]; application rate 80 g/ha) was 80% and the “Abutilon theophrasti (Efficacy in %)” value (Abutilon theophrasti [11]; application rate 80 g/ha) was 100%. For the same molecule, the “Oryza sativa (Efficacy in %)” value (Oryza sativa) was 0%, the “Zea mays (Efficacy in %)” value (Zea mays [12]; application rate 20 g/ha) was 20% and the “Glycine max (Efficacy in %)” value (Glycine max [13]; application rate 5 g/ha) was 20%. The “Triticum aestivum (Efficacy in %)” value (Triticum aestivum; application rate 5 g/ha) was 10%.
In the case of `CCC(Sc1cc(-n2c(=O)c(C)c(C(F)(F)F)n(C)c2=O)c(F)cc1Cl)C(=O)OCC1CCCCO1` (stereo not shown) [I.12-91], the “Matricaria inodora (Efficacy in %)” value (Matricaria inodora [1]; application rate 20 g/ha) is reported as 80%, the “Setaria viridis (Efficacy in %)” value (Setaria viridis [14]; application rate 20 g/ha) is reported as 80% and the “Alopecurus myosuroides (Efficacy in %)” value (Alopecurus myosuroides [15]) is reported as 80%. The “Amaranthus retroflexus (Efficacy in %)” value (Amaranthus retroflexus [2]) was 100%, the “Polygonum convolvulus (Efficacy in %)” value (Polygonum convolvulus; application rate 20 g/ha) was 80% and the “Stellaria media (Efficacy in %)” value (Stellaria media [16]) was 100%. For the same molecule, the “Viola tricolor (Efficacy in %)” value (Viola tricolor [3]; application rate 20 g/ha) was 100%, the “Abutilon theophrasti (Efficacy in %)” value (Abutilon theophrasti [4]; application rate 20 g/ha) was 100% and the “Veronica persica (Efficacy in %)” value (Veronica persica [5]) was 100%. For the same molecule, the “Echinochloa crus-galli (Efficacy in %)” value (Echinochloa crus-galli [17]) was 100%, the “Pharbitis purpurea (Efficacy in %)” value (Pharbitis purpurea [6]; application rate 20 g/ha) was 100% and the “Oryza sativa (Efficacy in %)” value (Oryza sativa) was 0%. The “Zea mays (Efficacy in %)” value (Zea mays [12]; application rate 5 g/ha) was 0%, the “Glycine max (Efficacy in %)” value (Glycine max [13]; application rate 5 g/ha) was 0% and the “Triticum aestivum (Efficacy in %)” value (Triticum aestivum; application rate 5 g/ha) was 0%.
With `CC(Sc1cc(-n2c(=O)cc(C(F)(F)F)n(C)c2=O)c(F)cc1Cl)C(=O)NC1(C#N)CCSC1` (stereo not shown) [I.1-340] the “Matricaria inodora (Efficacy in %)” value (Matricaria inodora [1]; application rate 80 g/ha) was 100%, the “Setaria viridis (Efficacy in %)” value (Setaria viridis [14]; application rate 80 g/ha) was 80% and the “Polygonum convolvulus (Efficacy in %)” value (Polygonum convolvulus; application rate 80 g/ha) was 100%. For the same molecule, the “Viola tricolor (Efficacy in %)” value (Viola tricolor [3]; application rate 80 g/ha) was 100%, the “Abutilon theophrasti (Efficacy in %)” value (Abutilon theophrasti [4]; application rate 80 g/ha) was 100% and the “Pharbitis purpurea (Efficacy in %)” value (Pharbitis purpurea [6]; application rate 80 g/ha) was 100%. For the same molecule, the “Zea mays (Efficacy in %)” value (Zea mays [7]) was 0%, the “Glycine max (Efficacy in %)” value (Glycine max [18]) was 20% and the “Matricaria inodora (Efficacy in %)” value (Matricaria inodora [8]; application rate 320 g/ha) was 100%. For the same molecule, the “Avena fatua (Efficacy in %)” value (Avena fatua) was 80%, the “Lolium rigidum (Efficacy in %)” value (Lolium rigidum) was 100% and the “Setaria viridis (Efficacy in %)” value (Setaria viridis [19]) was 100%. For the same molecule, the “Alopecurus myosuroides (Efficacy in %)” value (Alopecurus myosuroides [20]) was 90%, the “Amaranthus retroflexus (Efficacy in %)” value (Amaranthus retroflexus [9]; application rate 320 g/ha) was 100% and the “Stellaria media (Efficacy in %)” value (Stellaria media [21]) was 100%. For the same molecule, the “Viola tricolor (Efficacy in %)” value (Viola tricolor [10]; application rate 320 g/ha) was 100%, the “Abutilon theophrasti (Efficacy in %)” value (Abutilon theophrasti [11]; application rate 320 g/ha) was 100% and the “Veronica persica (Efficacy in %)” value (Veronica persica [22]) was 100%. For the same molecule, the “Echinochloa crus-galli (Efficacy in %)” value (Echinochloa crus-galli [23]) was 100%, the “Pharbitis purpurea (Efficacy in %)” value (Pharbitis purpurea [24]) was 100% and the “Oryza sativa (Efficacy in %)” value (Oryza sativa) was 10%. The “Zea mays (Efficacy in %)” value (Zea mays [12]; application rate 80 g/ha) was 0%, the “Glycine max (Efficacy in %)” value (Glycine max [13]; application rate 20 g/ha) was 20% and the “Triticum aestivum (Efficacy in %)” value (Triticum aestivum; application rate 20 g/ha) was 20%.
